The values that follow come from ChEMBL document CHEMBL3826944, “Syringaresinol induces mitochondrial biogenesis through activation of PPARβ pathway in skeletal muscle cells” (Bioorg Med Chem Lett, 2016).

Experiment [1] has as its system C2C12. Nature of the experiment: Upregulation of UCP2 protein expression in PPARbeta siRNA transfected mouse C2C12 myotubes at 1 uM after 24 hrs by immunoblot method relative to control. It counts as functional, cell-based.
Experiment [2] relates to C2C12. The experiment can be described thus: Upregulation of PGC1-alpha protein expression in PPARbeta siRNA transfected mouse C2C12 myotubes at 1 uM after 24 hrs by immunoblot method relative to control. Type of experiment: functional, cell-based.
Experiment [3] has as its system C2C12. Nature of the experiment: Induction of SIRT1 protein expression in mouse C2C12 myotubes at 1 uM after 24 hrs by immunoblot method. It counts as functional, cell-based.
Experiment [4] relates to C2C12. Nature of the experiment: Upregulation of PPARbeta protein expression in PPARbeta siRNA transfected mouse C2C12 myotubes at 1 uM after 24 hrs by immunoblot method. It counts as functional, cell-based.
In experiment [5] the test system is C2C12. Nature of the experiment: Upregulation of CPT1 protein expression in PPARbeta siRNA transfected mouse C2C12 myotubes at 1 uM after 24 hrs by immunoblot method relative to control. It counts as functional, cell-based.
The species entered for experiment [6] is Mus musculus. The experiment can be described thus: Activation of AMPK in mouse C2C12 myotubes assessed as increase in expression of phosphorylated AMPK at Thr-172 residue at 1 uM after 24 hrs by immunoblot method.
Experiment [7] deals with T1, Peroxisome proliferator-activated receptor delta (Homo sapiens, UniProt Q03181).
T1 sequence (Q03181 whole entry): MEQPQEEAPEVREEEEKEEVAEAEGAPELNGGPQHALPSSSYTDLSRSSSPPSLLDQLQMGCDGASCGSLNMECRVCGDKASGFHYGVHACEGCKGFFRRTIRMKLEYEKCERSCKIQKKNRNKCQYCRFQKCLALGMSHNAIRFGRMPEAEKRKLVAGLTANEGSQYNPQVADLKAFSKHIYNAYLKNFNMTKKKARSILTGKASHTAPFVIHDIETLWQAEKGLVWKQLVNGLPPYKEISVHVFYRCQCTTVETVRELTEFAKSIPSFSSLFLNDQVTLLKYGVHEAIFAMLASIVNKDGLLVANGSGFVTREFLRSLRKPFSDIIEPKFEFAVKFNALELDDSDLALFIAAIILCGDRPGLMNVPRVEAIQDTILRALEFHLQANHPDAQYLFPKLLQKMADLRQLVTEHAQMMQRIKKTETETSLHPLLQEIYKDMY
The experiment can be described thus: (§1) Activation of PPARbeta-LBD (unknown origin) assessed as fluorescein-labeled coactivator C33 recruitment by TR-FRET assay.

In experiment [8] the target is T2, Peroxisome proliferator-activated receptor delta (Homo sapiens) (UniProt Q03181).
T2 sequence (whole entry): T1 sequence (Q03181 whole entry)
The experiment is described as §1.

Experiment [9] has as its system C2C12. Nature of the experiment: Induction of mitochondrial DNA content in PPARbeta siRNA transfected mouse C2C12 myotubes at 50 uM after 24 hrs by qRT-PCR method. Type of experiment: functional, cell-based.
Experiment [10] has as its system C2C12. Nature of the experiment: Induction of mitochondrial DNA content in scramble siRNA transfected mouse C2C12 myotubes at 50 uM after 24 hrs by qRT-PCR method. It counts as functional, cell-based.
The test system of experiment [11] is C2C12. The experiment can be described thus: Induction of mitochondrial density in PPARbeta siRNA transfected mouse C2C12 myotubes at 50 uM after 24 hrs by Mitotracker Green staining based fluorescence microscopic analysis. Type of experiment: functional, cell-based.
Experiment [12] concerns C2C12. Nature of the experiment: Upregulation of CPT1 protein expression in PPARbeta siRNA transfected mouse C2C12 myotubes at 50 uM after 24 hrs by immunoblot method relative to control. It counts as functional, cell-based.
For experiment [13], the target named is T3, Peroxisome proliferator-activated receptor delta (Mus musculus) (UniProt P35396).
T3 sequence (whole entry): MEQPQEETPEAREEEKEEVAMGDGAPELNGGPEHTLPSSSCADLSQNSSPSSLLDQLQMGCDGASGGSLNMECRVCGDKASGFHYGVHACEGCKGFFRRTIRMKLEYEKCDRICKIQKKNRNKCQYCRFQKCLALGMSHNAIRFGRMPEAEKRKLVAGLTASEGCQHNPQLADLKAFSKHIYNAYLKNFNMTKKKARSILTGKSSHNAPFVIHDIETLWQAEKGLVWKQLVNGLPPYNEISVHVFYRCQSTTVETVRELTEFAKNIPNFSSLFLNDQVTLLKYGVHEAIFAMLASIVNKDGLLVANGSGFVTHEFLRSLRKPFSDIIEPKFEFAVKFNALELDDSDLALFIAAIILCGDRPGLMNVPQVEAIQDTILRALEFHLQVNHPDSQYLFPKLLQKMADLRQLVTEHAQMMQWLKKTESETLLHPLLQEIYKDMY
Nature of the experiment: Activation of PPARbeta in mouse C2C12 myotubes assessed as increase in PGC-1alpha mRNA level at 10 to 25 uM after 24 hrs by qRT-PCR method.

For experiment [14], the system named is C2C12. The experiment can be described thus: Induction of mitochondrial biogenesis in mouse C2C12 myotubes assessed as increase in mitochondrial density at 50 uM after 24 hrs by Mitotracker Green staining based fluorescence microscopic analysis relative to control. It counts as functional.
The test system of experiment [15] is C2C12. The experiment can be described thus: Induction of SIRT1 protein expression in mouse C2C12 myotubes at 50 uM after 24 hrs by immunoblot method. Type of experiment: functional, cell-based.
For experiment [16], the system named is C2C12. Nature of the experiment: Upregulation of PGC1-alpha protein expression in PPARbeta siRNA transfected mouse C2C12 myotubes at 50 uM after 24 hrs by immunoblot method relative to control. Type of experiment: functional, cell-based.
The species named for experiment [17] is Mus musculus. The experiment can be described thus: Activation of AMPK in mouse C2C12 myotubes assessed as increase in expression of phosphorylated AMPK at Thr-172 residue at 50 uM after 24 hrs by immunoblot method.
Experiment [18] concerns C2C12. The experiment can be described thus: Upregulation of PPARbeta protein expression in PPARbeta siRNA transfected mouse C2C12 myotubes at 50 uM after 24 hrs by immunoblot method. It counts as functional, cell-based.
Experiment [19] has as its system C2C12. Nature of the experiment: Induction of PPARbeta mRNA expression in mouse C2C12 myotubes at 50 uM after 24 hrs by qRT-PCR method relative to control. It counts as functional.
For experiment [20], the target named is T3, Peroxisome proliferator-activated receptor delta (Mus musculus). Nature of the experiment: Activation of PPARbeta in mouse C2C12 myotubes assessed as increase in PGC-1alpha protein expression at 10 to 25 uM after 24 hrs by immunoblot method.
The test system of experiment [21] is C2C12. The experiment can be described thus: Upregulation of UCP2 protein expression in PPARbeta siRNA transfected mouse C2C12 myotubes at 50 uM after 24 hrs by immunoblot method relative to control. It counts as functional, cell-based.
The target of experiment [22] is T1, Peroxisome proliferator-activated receptor delta. The experiment can be described thus: Binding affinity to recombinant PPARbeta-LBD (254 to 441 residues) (unknown origin) expressed in Escherichia coli Rosetta2 cells by isothermal titration calorimetry.
The test system of experiment [23] is C2C12. The experiment can be described thus: Induction of mitochondrial biogenesis in mouse C2C12 myotubes assessed as increase in mitochondrial density at 25 uM after 24 hrs by Mitotracker Green staining based fluorescence microscopic analysis relative to control. It counts as functional.
Experiment [24] concerns C2C12. Nature of the experiment: Induction of PPARbeta protein expression in mouse C2C12 myotubes at 50 uM after 24 hrs by immunoblot method. It counts as functional, cell-based.
For experiment [25], the system named is C2C12. The experiment can be described thus: Induction of mitochondrial biogenesis in mouse C2C12 myotubes assessed as increase in mitochondrial DNA content at 25 to 50 uM after 24 hrs by qRT-PCR method. Type of experiment: functional, cell-based.
For experiment [26], the system named is C2C12. Nature of the experiment: Induction of mitochondrial density in scramble siRNA transfected mouse C2C12 myotubes at 50 uM after 24 hrs by Mitotracker Green staining based fluorescence microscopic analysis. It counts as functional, cell-based.
Experiment [27] concerns C2C12. The experiment can be described thus: Induction of PPARbeta mRNA expression in mouse C2C12 myotubes at <50 uM after 24 hrs by qRT-PCR method. It counts as functional, cell-based.
In experiment [28] the test system is C2C12. The experiment can be described thus: Induction of PPARbeta protein expression in mouse C2C12 myotubes at <50 uM after 24 hrs by immunoblot method. It counts as functional, cell-based.

Calls of active or inactive are those of the source. The rule behind the calls is not given here. Bounds are passed on as bounds.

As for `Cc1cc(SCc2sc(-c3ccc(C(F)(F)F)c(F)c3)nc2C)ccc1OCC(=O)O`, the outcome in experiment [1], in [2], in experiment [4] and in experiment [5] was inactive. For the same compound, the result in experiment [3] and in [6] was Active.
For the compound `COc1cc([C@H]2OC[C@H]3[C@@H]2CO[C@@H]3c2cc(OC)c(O)c(OC)c2)cc(OC)c1O` [SYRINGARESINOL], the EC50 in [7] came to 18.1 µM. Also, the Activity result in experiment [8] was “Dose-dependent effect”; in experiment [14] it was 18%; in experiment [23], 14%; in experiment [25], “Dose-dependent effect”. For the same compound, the result in [9], in experiment [11], in experiment [12], in experiment [15], in experiment [16] and in experiment [17] was inactive. Further, the result in [18], in [21], in experiment [27] and in experiment [28] was inactive. Besides, the outcome in [10], in [13], in experiment [20], in [24] and in [26] was Active. The “fold change (FC)” value in experiment [19] is over 2. Moreover, the Kd in [22] came to 27.6 µM.
